Results published in patent US20260317356A1, “SMALL MOLECULE MODULATORS OF OGG1” (AZKARRA THERAPEUTICS, INC., priority 2023, published 2026).

Molecular target: hOGG1 (Homo sapiens, UniProt O15527)
Test: Surface Plasma Resonance with hOGG1 to measure compound affinity (OGG1 SPR Kd)
Assay type: binding
Set-up: Protein His-hOGG1 (12-323) was prepared
Settings: Biacore T-200, immobilized his-tagged OGG1; pH 7.4; 2% DMSO; single-cycle kinetics
Experimental: Surface Plasma Resonance with hOGG1 to Measure Compound Affinity (OGG1 SPR Kd); All the SPR studies were performed on a Biacore T-200 instrument (Cytiva life sciences) using series S NTA sensor chip (cat #BR-1005-32, Cytiva life sciences). Recombinant his-tagged OGG1 (mol. wt. 36003; ChemPartner, Shanghai, China) was immobilized on NTA sensor chip via Ni^2+/NTA chelation using NTA reagent kit (Cytiva life sciences; cat #289950) as per manufacturer's recommended protocol. The running buffer during immobilization contained HEPES (20 mM, pH 7.4), 150 mM NaCl, 0.5 mM TCEP (tris(2-carboxyethyl)phosphine), and 0.005% Tween-20. NTA sensor chip (experimental cell) was first conditioned by injecting regeneration solution (350 mM EDTA, flow rate 30 μL/min, 2 injections 60 each). Additional wash with 50 mM NaOH was used whenever the chip was regenerated (flow rate 30 μL/min, 1 injection of 60 s). The sensor chip was then activated with 0.5 mM NiCl2 (flow rate 10 μL/min, 2 injection of 60 s, leading to a baseline increase of ~40 RU), and the excess Ni^2+ was removed using immobilization buffer containing 3 mM EDTA (flow rate 10 μL/min, 1 injection of 60 s). Finally, OGG1 (diluted to 6.2 μg/mL in running buffer) was injected on the activated sensor chip at a flow rate of 10 μL/min until immobilization level reached ~6000 RU. Any loosely bound protein was removed by passing the immobilization buffer overnight at 20 μL/min. At this point, the drift in baseline was ~0.01 RU/s and the final immobilization level was ~2500 RU. Reference cell was left untreated. SPR binding experiments were performed using binding buffer (20 mM HEPES (pH 7.4), 150 mM NaCl, 0.5 mM TCEP, 0.005% Tween-20, and 2% DMSO) at a flow rate of 30 μL/min. Single-cycle kinetics approach was used for binding analysis which consisted of sequential injections of increasing concentrations of test compound (a 3-fold serial dilution with 5 concentrations; highest 750 or 1500 nM; with final DMSO concentration at 2%) over the immobilized protein without regeneration step between each sample injection. Each injection was 45 seconds long (contact time), followed by a final dissociation of 600 sec. The Biacore T-200 Evaluation software 3.1 (GE Healthcare) was used to determine kinetic parameters from SPR data. All the reported sensograms were reference subtracted and corrected for refractive index contributions from solvent using 8-point solvent correction (1.4 to 2.8% DMSO in binding buffer). Data were fit to both steady state and 1:1 kinetic model to obtain Kon, Koff and binding affinity (Kd).

Chain of hOGG1 (O15527 12-323): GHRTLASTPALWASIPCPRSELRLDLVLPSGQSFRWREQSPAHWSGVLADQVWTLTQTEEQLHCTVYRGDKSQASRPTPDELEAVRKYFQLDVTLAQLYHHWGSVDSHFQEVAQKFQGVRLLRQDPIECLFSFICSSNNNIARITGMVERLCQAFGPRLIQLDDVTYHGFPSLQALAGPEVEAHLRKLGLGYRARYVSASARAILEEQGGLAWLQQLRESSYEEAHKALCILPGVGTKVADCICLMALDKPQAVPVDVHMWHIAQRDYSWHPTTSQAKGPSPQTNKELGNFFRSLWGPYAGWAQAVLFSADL

Row | Compound | Kd
1 | COc1cc(NC(=O)[C@]2(C)CC[C@H](N3Cc4c(C)ccc(OC)c4NC3=O)CC2)ccc1C [Example 13, (1s,4s)-N-(3-Methoxy-4-methylphenyl)-4-(8-methoxy-5-methyl-2-oxo-1,2-dihydroquinazolin-3(4H)-yl)-1-methylcyclohexanecarboxamide] | 10 to 100 nM
2 | COc1ccc(NC(=O)[C@H]2CC[C@@H](N3Cc4c(C)cccc4C3=O)CC2)cc1C#N [Example 239, (1s,4s)-N-(3-Cyano-4-methoxyphenyl)-4-(4-methyl-1-oxoisoindolin-2-yl)cyclohexanecarboxamide] | 10 to 100 nM
3 | COc1ccc(NC(=O)[C@]2(C)CC[C@H](N3Cc4c(C)cccc4NC3=O)CC2)cc1Cl (single isomer, unassigned) [Example 103, (1s,4s)-N-(3-chloro-4-methoxyphenyl)-1-methyl-4-(5-methyl-2-oxo-1,2-dihydroquinazolin-3(4H)-yl)cyclohexanecarboxamide] | 10 to 100 nM
4 | COc1ccc(NC(=O)[C@H]2CC[C@@H](N3Cc4c(C)cc(NCCN(C)C)cc4NC3=O)CC2)cc1C [Example 97, (1s,4s)-4-(7-(2-(dimethylamino)ethylamino)-5-methyl-2-oxo-1,2-dihydroquinazolin-3(4H)-yl)-N-(4-methoxy-3-methylphenyl)cyclohexanecarboxamide] | 10 to 100 nM
5 | COc1ccc(NC(=O)[C@H]2CC[C@@H](N3Cc4c(C)ccnc4NC3=O)CC2)cc1 [Example 15, (1s,4s)-N-(4-methoxyphenyl)-4-(5-methyl-2-oxo-1,2-dihydropyrido[2,3-d]pyrimidin-3(4H)-yl)cyclohexanecarboxamide] | 10 to 100 nM
6 | COc1ccc(NC(=O)[C@H]2CC[C@@H](N3Cc4c(C)cc(NCCN(C)C)cc4NC3=O)CC2)cc1C#N [Example 99, (1s,4s)-N-(3-cyano-4-methoxyphenyl)-4-(7-(2-(dimethylamino)ethylamino)-5-methyl-2-oxo-1,2-dihydroquinazolin-3(4H)-yl)cyclohexanecarboxamide] | 10 to 100 nM
7 | COc1ccc(NC(=O)[C@H]2CC[C@@H](N3Cc4c(C)cc(NCCN(C)C)cc4C3=O)CC2)cc1Cl [Example 260, (1s,4s)-N-(3-Chloro-4-methoxyphenyl)-4-(6-(2-(dimethylamino)ethylamino)-4-methyl-1-oxoisoindolin-2-yl)cyclohexanecarboxamide] | 10 to 100 nM
8 | COc1ccc(NC(=O)[C@]2(C)CC[C@H](N3Cc4c(C)ccc(OC)c4NC3=O)CC2)cc1C#N (single isomer, unassigned) [Example 9, (1s,4s)-N-(3-cyano-4-methoxyphenyl)-4-(8-methoxy-5-methyl-2-oxo-1,2-dihydroquinazolin-3(4H)-yl)-1-methylcyclohexanecarboxamide] | ≤ 10 nM
9 | COc1cc(NC(=O)[C@H]2CC[C@@H](N3Cc4c(C)cc(OCCN5CC(F)(F)C5)cc4C3=O)CC2)ccc1C [Example 255, (1s,4s)-4-(6-(2-(3,3-Difluoroazetidin-1-yl)ethoxy)-4-methyl-1-oxoisoindolin-2-yl)-N-(3-methoxy-4-methylphenyl)cyclohexanecarboxamide] | 10 to 100 nM
10 | COc1ccc(NC(=O)[C@]2(C)CC[C@H](N3Cc4c(C)ccc(OC)c4NC3=O)CC2)cc1Cl (single isomer, unassigned) [Example 7, (1s,4s)-N-(3-chloro-4-methoxyphenyl)-4-(8-methoxy-5-methyl-2-oxo-1,2-dihydroquinazolin-3(4H)-yl)-1-methylcyclohexanecarboxamide] | 10 to 100 nM
11 | COc1ccc(NC(=O)[C@H]2CC[C@@H](N3Cc4c(C)cc(NCCN(C)C)cc4C3=O)CC2)cc1C [Example 256, (1s,4s)-4-(6-(2-(Dimethylamino)ethylamino)-4-methyl-1-oxoisoindolin-2-yl)-N-(4-methoxy-3-methylphenyl)cyclohexanecarboxamide] | ≤ 10 nM
12 | COc1cc(NC(=O)[C@]2(C)CC[C@H](N3Cc4c(C)cccc4C3=O)CC2)ccc1C [Example 277, (1s,4s)-N-(3-methoxy-4-methylphenyl)-1-methyl-4-(4-methyl-1-oxoisoindolin-2-yl)cyclohexane-1-carboxamide] | 10 to 100 nM

The next lines start with the values.

Row | Kd | Compound
13 | 100 to 1000 nM | COc1cc(NC(=O)[C@H]2CC[C@@H](N3Cc4c(C)cc(N5CC6(COC6)C5)cc4NC3=O)CC2)ccc1C [Example 30, (1s,4s)-N-(3-Methoxy-4-methylphenyl)-4-(5-methyl-2-oxo-7-(2-oxa-6-azaspiro[3.3]heptan-6-yl)-1,2-dihydroquinazolin-3(4H)-yl)cyclohexanecarboxamide]
14 | 10 to 100 nM | COc1cc(NC(=O)[C@H]2CC[C@@H](N3Cc4c(C)cc(-c5nnco5)cc4NC3=O)CC2)ccc1C [Example 92, (1s,4s)-N-(3-methoxy-4-methylphenyl)-4-(5-methyl-7-(1,3,4-oxadiazol-2-yl)-2-oxo-1,2-dihydroquinazolin-3(4H)-yl)cyclohexanecarboxamide]
15 | 10 to 100 nM | CNCCNc1cc(C)c2c(c1)C(=O)N([C@H]1CC[C@@H](C(=O)Nc3ccc(C)c(OC)c3)CC1)C2 [Example 193, (1s,4s)-N-(3-methoxy-4-methylphenyl)-4-(4-methyl-6-(2-(methylamino)ethylamino)-1-oxoisoindolin-2-yl)cyclohexanecarboxamide]
16 | ≤ 10 nM | COc1cc(NC(=O)[C@H]2CC[C@@H](N3Cc4c(C)cnc(CNC(C)=O)c4NC3=O)CC2)ccc1C [Example 19, (1s,4s)-4-(8-(Acetamidomethyl)-5-methyl-2-oxo-1,2-dihydropyrido[3,4-d]pyrimidin-3(4H)-yl)-N-(3-methoxy-4-methylphenyl)cyclohexanecarboxamide]
17 | 10 to 100 nM | COc1cc(NC(=O)[C@H]2CC[C@@H](N3Cc4c(C)ccc(CN)c4NC3=O)CC2)ccc1C [Example 58, (1s,4s)-4-(8-(aminomethyl)-5-methyl-2-oxo-1,2-dihydroquinazolin-3(4H)-yl)-N-(3-methoxy-4-methylphenyl)cyclohexanecarboxamide]
18 | ≤ 10 nM | COc1cc(NC(=O)[C@H]2CC[C@@H](N3Cc4c(C)cc(CN)cc4NC3=O)CC2)ccc1C [Example 28, (1s,4s)-4-(7-(Aminomethyl)-5-methyl-2-oxo-1,2-dihydroquinazolin-3(4H)-yl)-N-(3-methoxy-4-methylphenyl)cyclohexanecarboxamide]
19 | 10 to 100 nM | COc1cc(NC(=O)[C@H]2CC[C@@H](N3Cc4c(C)ccc(C#N)c4C3=O)CC2)ccc1C [Example 143, (1s,4s)-4-(7-Cyano-4-methyl-1-oxoisoindolin-2-yl)-N-(3-methoxy-4-methylphenyl)cyclohexanecarboxamide]
20 | 10 to 100 nM | COc1cc(NC(=O)[C@H]2CC[C@@H](N3Cc4c(C)ccc(C#N)c4NC3=O)CC2)ccc1C [Example 59, (1s,4s)-4-(8-cyano-5-methyl-2-oxo-1,2-dihydroquinazolin-3(4H)-yl)-N-(3-methoxy-4-methylphenyl)cyclohexanecarboxamide]
21 | 10 to 100 nM | COc1cc(NC(=O)[C@H]2CC[C@@H](N3Cc4c(C)ccc(N5CC6(COC6)C5)c4NC3=O)CC2)ccc1C [Example 35, (1s,4s)-N-(3-Methoxy-4-methylphenyl)-4-(5-methyl-2-oxo-8-(2-oxa-6-azaspiro[3.3]heptan-6-yl)-1,2-dihydroquinazolin-3(4H)-yl)cyclohexanecarboxamide]
22 | 10 to 100 nM | COc1cc(NC(=O)[C@H]2CC[C@@H](N3Cc4c(C)ccnc4NC3=O)CC2)ccc1C [Example 41, (1s,4s)-N-(3-Methoxy-4-methylphenyl)-4-(5-methyl-2-oxo-1,2-dihydropyrido[2,3-d]pyrimidin-3(4H)-yl)cyclohexanecarboxamide]
23 | 10 to 100 nM | COc1cc(NC(=O)[C@H]2CC[C@@H](N3Cc4c(C)ccc(OC)c4NC3=O)CC2)ccc1C [Example 47, (1s,4s)-N-(3-Methoxy-4-methylphenyl)-4-(8-methoxy-5-methyl-2-oxo-1,2-dihydroquinazolin-3(4H)-yl)cyclohexanecarboxamide]
24 | ≤ 10 nM | COc1cc(NC(=O)[C@H]2CC[C@@H](N3Cc4c(C)ccc(P(C)(C)=O)c4NC3=O)CC2)ccc1C [Example 5, (1s,4s)-4-(8-(Dimethylphosphoryl)-5-methyl-2-oxo-1,2-dihydroquinazolin-3(4H)-yl)-N-(3-methoxy-4-methylphenyl)cyclohexanecarboxamide]
25 | 10 to 100 nM | COc1ccc(NC(=O)[C@H]2CC[C@@H](N3Cc4c(C)cccc4C3=O)CC2)cc1C [Example 227, (1s,4s)-N-(4-Methoxy-3-methylphenyl)-4-(4-methyl-1-oxoisoindolin-2-yl)cyclohexanecarboxamide]
